This is an account of results in US20090131468A1, “Bis-(Sulfonylamino) Derivatives in Therapy 065” (AstraZeneca AB, priority 2007, published 2009).

The structures appear in SMILES notation.

In general, IC50 refers to the midpoint of a concentration-inhibition curve. A high value points to weaker potency in that assay.

In this test the target is T1, human mPGES-1 (Homo sapiens, UniProt O14684).
T1 sequence (O14684 1-152): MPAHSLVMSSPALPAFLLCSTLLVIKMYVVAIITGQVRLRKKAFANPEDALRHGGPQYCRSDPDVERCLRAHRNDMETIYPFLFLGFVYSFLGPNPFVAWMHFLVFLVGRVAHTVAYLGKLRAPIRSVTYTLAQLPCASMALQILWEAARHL
Put plainly: Microsomal prostaglandin E synthase biochemical assay. The following applies: microsome preparation containing human mPGES-1; PGH2 10.8 μM, GSH 2.5 mM, pH 6.8; PGE2 quantified by HTRF; average of at least n=2. The procedure:
Compounds were tested as inhibitors of microsomal prostaglandin E synthase activity in microsomal prostaglandin E synthase assays and whole cell assays. These assays measure prostaglandin E2 (PGE2) synthesis which is taken as a measure of prostaglandin E synthase activity. Microsomal prostaglandin E synthase biochemical assays used microsomal prostaglandin E synthase-1 in microsomal preparations. The source of the microsomes can be for example interleukin-1β-stimulated human A549 cells (which express human mPGES-1) or Sf9 cells transfected with plasmids encoding human mPGES-1 cDNA.
A solution of test compound was added to a diluted microsome preparation containing human mPGES-1 and pre-incubated for 15 minutes in potassium phosphate buffer pH 6.8 with cofactor glutathione (GSH). Corresponding solutions without test compound were used as positive controls, and corresponding solutions without test compound and without microsomes were used as negative controls. The enzymatic reaction was then started by addition of the substrate PGH2 in an organic solution (dry acetonitrile).
The reaction was stopped after one minute by adding an acidic solution (pH 1.9) of ferric chloride and citrate (final concentrations 7 mM and 47 mM respectively), by which the PGH2 was sequestered (the PGH2 is reduced to mainly 12-hydroxy heptadecatrineoic acid (12-HHT) which is not detected by the subsequent PGE2 detection step). The resulting solution was then pH neutralized by addition of potassium phosphate buffer, prior to diluting an aliquot of the resulting solution in a weak potassium phosphate buffer (50 mM, pH 6.8) containing 0.2% BSA (w/v). […] The PGE2 formed was quantified by use of a commercial HTRF based kit (catalogue #62PG2PEC or #62P2APEC from Cisbio International). 100% activity was defined as the PGE2 production in positive controls subtracted by the PGE2 production in the negative controls. IC50 values were then determined using standard procedures.
For orientation: In TR-FRET formats the signal depends on donor and acceptor labels being close together.
Regarding `CC(C)(O)C#Cc1cccc(C(=O)NS(=O)(=O)c2ccccc2S(N)(=O)=O)c1` [Example 59, 3-(3-Hydroxy-3-methylbut-1-ynyl)-N-(2-sulfamoylphenylsulfonyl)benzamide], 0.056 µM corresponded to half-maximal inhibition (IC50).
`NS(=O)(=O)c1ccccc1S(=O)(=O)NC(=O)c1ccc(C#Cc2cccnc2)cc1` [Example 70, 4-(Pyridin-3-ylethynyl)-N-(2-sulfamoylphenylsulfonyl)benzamide] had a half-inhibitory concentration (IC50) of 0.32 µM.
The same measure for `NS(=O)(=O)c1ccccc1S(=O)(=O)NC(=O)c1ccc(OCc2ccccc2)cc1` [Example 30, 4-Phenylmethoxy-N-(2-sulfamoylphenyl)sulfonyl-benzamide]: 0.16 µM; for `CC(C)Oc1cc(C(=O)NS(=O)(=O)c2ccccc2S(N)(=O)=O)cnc1C#CC1CC1` [Example 142, 6-(cyclopropylethynyl)-5-isopropoxy-N-(2-sulfamoylphenylsulfonyl)nicotinamide]: 0.049 µM.
The same measure for `NS(=O)(=O)c1ccccc1S(=O)(=O)NC(=O)c1ccc(-c2cc3ccccc3s2)cc1` [Example 4, 4-Benzothiophen-2-yl-N-(2-sulfamoylphenyl)sulfonyl-benzamide]: 0.04 µM.
In the case of `Cc1nc(-c2ccc(Cl)cc2)sc1C(=O)NS(=O)(=O)c1ccccc1S(N)(=O)=O` [Example 28, 2-(4-Chlorophenyl)-4-methyl-N-(2-sulfamoylphenyl)sulfonyl-1,3-thiazole-5-carboxamide] it was 0.044 µM; in that of `COc1c(C#CC(C)(C)C)ccc(C(=O)NS(=O)(=O)c2ccccc2S(N)(=O)=O)c1F` [Example 90, 4-(3,3-Dimethylbut-1-ynyl)-2-fluoro-3-methoxy-N-(2-sulfamoylphenylsulfonyl)-benzamide], 0.26 µM.
`NS(=O)(=O)c1ccccc1S(=O)(=O)NC(=O)c1ccc(Br)cc1` [Example 10, 4-Bromo-N-(2-sulfamoylphenyl)sulfonyl-benzamide] displayed an IC50 of 0.44 µM.
In the case of `CCC(C)(O)C#Cc1ccc(C(=O)NS(=O)(=O)c2ccccc2S(N)(=O)=O)cc1` (centres unmarked) [Example 57, 4-(3-Hydroxy-3-methylpent-1-ynyl)-N-(2-sulfamoylphenylsulfonyl)benzamide] it was 8.8 µM; in that of `NS(=O)(=O)c1ccccc1S(=O)(=O)NC(=O)c1ccc(C#Cc2ccccc2)cc1` [Example 72, 4-(Phenylethynyl)-N-(2-sulfamoylphenylsulfonyl)benzamide], 0.01 µM.
In the case of `Cc1nc(-c2cc3ccccc3o2)sc1C(=O)NS(=O)(=O)c1ccccc1S(N)(=O)=O` [Example 63, 2-(Benzofuran-2-yl)-4-methyl-N-(2-sulfamoylphenylsulfonyl)thiazole-5-carboxamide] it was 0.096 µM.
The same measure for `NS(=O)(=O)c1ccccc1S(=O)(=O)NC(=O)c1ccc(-c2cc3ccccc3o2)cc1Cl` [Example 91, 4-(Benzofuran-2-yl)-2-chloro-N-(2-sulfamoylphenylsulfonyl)benzamide]: 0.12 µM; for `NS(=O)(=O)c1ccccc1S(=O)(=O)NC(=O)c1ccc(C#CC2CCCC2)cc1F` [Example 85, 4-(Cyclopentylethynyl)-2-fluoro-N-(2-sulfamoylphenylsulfonyl)benzamide]: 0.049 µM.
In turn, `NS(=O)(=O)c1ccccc1S(=O)(=O)NC(=O)c1cccc(COCC(F)(F)C(F)F)c1` [Example 21, N-(2-Sulfamoylphenyl)sulfonyl-3-(2,2,3,3-tetrafluoropropoxymethyl)benzamide] gave a concentration for half-maximal inhibition (IC50) of 2.2 µM.
In the case of `COc1cc(C(=O)NS(=O)(=O)c2ccccc2S(N)(=O)=O)cnc1C#Cc1ccc(C(F)(F)F)cc1` [Example 139, 5-Methoxy-N-(2-sulfamoylphenylsulfonyl)-6-((4-(trifluoromethyl)phenyl)-ethynyl)nicotinamide] it was 0.0068 µM; in that of `NS(=O)(=O)c1ccccc1S(=O)(=O)NC(=O)c1ccc(-c2cc3ccccc3o2)cc1F` [Example 83, 4-(Benzofuran-2-yl)-2-fluoro-N-(2-sulfamoylphenylsulfonyl)benzamide], 0.042 µM; in that of `NS(=O)(=O)c1ccccc1S(=O)(=O)NC(=O)c1ccc(C#CC2(O)CCCC2)cc1` [Example 58, 4-((1-Hydroxycyclopentyl)ethynyl)-N-(2-sulfamoylphenylsulfonyl)benzamide], 1.9 µM.
In the case of `CC(C)(C)C#Cc1ccc(C(=O)NS(=O)(=O)c2ccccc2S(N)(=O)=O)c(F)c1` [Example 84, 4-(3,3-Dimethylbut-1-ynyl)-2-fluoro-N-(2-sulfamoylphenylsulfonyl)benzamide], half-maximal inhibition (IC50) was put at 0.17 µM.
The same measure for `NS(=O)(=O)c1ccccc1S(=O)(=O)NC(=O)C1CC2CCC1C2` (centres unmarked) [Example 17, N-(2-Sulfamoylphenyl)sulfonylnorbornane-2-carboxamide]: 9.8 µM; for `COCCOCCOc1cc(C(=O)NS(=O)(=O)c2ccccc2S(N)(=O)=O)ccc1C#CC(C)(C)C` [Example 118, 4-(3,3-Dimethylbut-1-ynyl)-3-(2-(2-methoxyethoxy)ethoxy)-N-(2-sulfamoylphenyl-sulfonyl)benzamide]: 0.62 µM.
In the case of `NS(=O)(=O)c1ccccc1S(=O)(=O)NC(=O)c1ccc(Br)cc1Cl` [Example 11, 4-Bromo-2-chloro-N-(2-sulfamoylphenyl)sulfonyl-benzamide] it was 5.5 µM.
In the case of `COCCn1c(-c2ccccc2)cc2cc(C(=O)NS(=O)(=O)c3ccccc3S(N)(=O)=O)ccc21` [Example 141, 1-(2-Methoxyethyl)-2-phenyl-N-(2-sulfamoylphenylsulfonyl)-1H-indole-5-carboxamide] it was 0.3 µM; in that of `NS(=O)(=O)c1ccccc1S(=O)(=O)NC(=O)c1ccc(-c2nc3ccccc3o2)cc1` [Example 8, 4-Benzooxazol-2-yl-N-(2-sulfamoylphenyl)sulfonyl-benzamide], 0.086 µM; in that of `N#Cc1cc(C(=O)NS(=O)(=O)c2ccccc2S(N)(=O)=O)ccc1-c1cc2ccccc2o1` [Example 80, 4-(Benzofuran-2-yl)-3-cyano-N-(2-sulfamoylphenylsulfonyl)benzamide], 0.13 µM.
`NS(=O)(=O)c1ccccc1S(=O)(=O)NC(=O)C1(c2ccccc2)CCCCC1` [Example 18, 1-Phenyl-N-(2-sulfamoylphenyl)sulfonyl-cyclohexane-1-carboxamide] showed a half-maximal inhibitory concentration (IC50) of 0.1 µM.
`NS(=O)(=O)c1ccccc1S(=O)(=O)NC(=O)c1ccc(Br)cc1O` [Example 49a, 4-Bromo-2-hydroxy-N-(2-sulfamoylphenylsulfonyl)benzamide]: the IC50 came out at 0.54 µM.
The same measure for `NS(=O)(=O)c1ccccc1S(=O)(=O)NC(=O)c1ccc2cc(-c3ccccc3)oc2c1` [Example 9, 2-Phenyl-N-(2-sulfamoylphenyl)sulfonyl-benzofuran-6-carboxamide]: 0.078 µM; for `NS(=O)(=O)c1ccccc1S(=O)(=O)NC(=O)c1ccc(Cl)cc1O` [Example 81, 4-Chloro-2-hydroxy-N-(2-sulfamoylphenylsulfonyl)benzamide]: 1 µM.
The same measure for `NS(=O)(=O)c1ccccc1S(=O)(=O)NC(=O)c1ccc(C#CC2CCCCC2)cn1` [Example 88, 5-(Cyclohexylethynyl)-N-(2-sulfamoylphenylsulfonyl)picolinamide]: 0.14 µM; for `COCCOCCOc1cc(C(=O)NS(=O)(=O)c2ccccc2S(N)(=O)=O)cnc1C#CC(C)(C)C` [Example 134, 6-(3,3-Dimethylbut-1-ynyl)-5-(2-(2-methoxyethoxy)ethoxy)-N-(2-sulfamoylphenyl-sulfonyl)nicotinamide]: 0.18 µM; for `NS(=O)(=O)c1ccccc1S(=O)(=O)NC(=O)c1ccc(-c2cc3ccccc3o2)c(O)c1` [Example 51, 4-(Benzofuran-2-yl)-3-hydroxy-N-(2-sulfamoylphenylsulfonyl)benzamide]: 0.0034 µM.
`NS(=O)(=O)c1ccccc1S(=O)(=O)NC(=O)c1ccc(-c2ccccn2)s1` [Example 34, 5-Pyridin-2-yl-N-(2-sulfamoylphenyl)sulfonyl-thiophene-2-carboxamide] came in with an IC50 of 1.6 µM.
The same measure for `Cc1cc(Br)ccc1C(=O)NS(=O)(=O)c1ccccc1S(N)(=O)=O` [Example 15, 4-Bromo-2-methyl-N-(2-sulfamoylphenyl)sulfonyl-benzamide]: 2 µM; for `NS(=O)(=O)c1ccccc1S(=O)(=O)NC(=O)c1cnc2ccccc2c1` [Example 162, Benzene-1,2-disulfonic acid 1-amide 2[(quinoline-3-carbonyl)-amide]]: 11 µM.
For the compound `CC(C)Oc1cc(C(=O)NS(=O)(=O)c2ccccc2S(N)(=O)=O)ccc1-c1cc2ccccc2o1` [Example 127, 4-(Benzofuran-2-yl)-3-isopropoxy-N-(2-sulfamoylphenylsulfonyl)benzamide], the IC50 stood at 0.0095 µM.
